# Experimental data published in patent publication EP4775586A1, “DEUTERATED TETRACYCLIC DERIVATIVE AND USE THEREOF” (priority 2023, dated 2025).
# Legend:
# [1] = 28-day repeat-dose toxicity study in mice; assay type: in vivo, Balb/c mice
# Experimental: Administration groups of the compound YF027 of the present disclosure and its non-deuterated control compound A were set for a 28-day repeat-dose toxicity study in mice. Each compound was administered to 10 Balb/c mice (5 females and 5 males, purchased from Beijing Vital River Laboratory Animal Technology Co., Ltd.) by intragastric administration. The administration was performed once daily for 6 consecutive days a week for 4 consecutive weeks, and an 8% Tween 80 vehicle control group (10 Balb/c mice, 5 females and 5 males) was set for administration at the same volume using the same method. Table 12. Administration information of repeat-dose toxicity assay
# During the administration period, the mice were observed every day. The body weight, appearance signs, behavior and activity, fecal traits, and local reactions at the site of administration were recorded. After the end of the administration, the gross anatomy was performed on the mice in the administration group and the control group. The serum of the mice was collected, and the heart, liver, spleen, kidney, lung, and brain tissues and organs were weighed to calculate organ coefficients. The tissue samples of all groups were subjected to histopathological detection, and the serum samples were analyzed for biochemical parameters of liver and kidney functions. The serum biochemical parameters included: alanine aminotransferase (ALT), aspartate aminotransferase (AST), alkaline phosphatase (ALP), urea (UREA), creatinine (CREA), total protein (TP), and albumin (ALB). Statistical analysis was performed to evaluate potential toxic effects of the compounds.
# [2] = Pharmacokinetics and lung tissue distribution in mice, LC-MS/MS; assay type: in vivo, Balb/C mice; details: mouse, in vivo, po, 100 mg/kg
# Experimental: In this example, the pharmacokinetic parameters and lung tissue distribution of the deuterated compounds YF027, YF032, YF036, and YF044 and their respective non-deuterated control compounds (A, B, C, and D) were determined.
# Balb/C mice, male (1 group at each time point, 5 mice per group, 55 mice per compound in total), 7-8 weeks old, weighing about 20 g, animal source: Beijing Vital River Laboratory Animal Technology Co., Ltd.
# The test compound was completely dissolved in an 8% Tween-80 aqueous solution. A 10 mg/mL drug liquid was prepared for intraperitoneal injection and intragastric administration.
# Single intragastric administration was performed at a dose of 100 mg/kg. The pharmacokinetic differences between the deuterated compounds YF027, YF032, YF036, and YF044 and their respective non-deuterated controls A, B, C, and D were compared.
# The mice were fasted overnight before administration. In the experiment, orbital venous blood and lung tissue were collected from the mice at time points of no administration group (0 min) and 10 min, 20 min, 30 min, 1 h, 2 h, 3 h, 4 h, 6 h, 8 h, and 24 h after intragastric administration, and about 300 µL of blood was collected from the eyeballs each time.
# The collected blood sample was placed in an anticoagulation tube, and quickly inverted and mixed well. The tube was temporarily placed on ice after being labeled. The blood samples temporarily stored on ice were subjected to low-temperature centrifugation within 1 h at 4 °C at 3000 rpm for 10 min. The supernatant obtained after centrifugation was plasma. The plasma was transferred to a new centrifuge tube and stored in a refrigerator at -80 °C for subsequent detection.
# The lung tissues of the mice were collected, washed with pre-cooled normal saline to remove the residual blood and tissue fluid, dried with absorbent paper, weighed with a balance, and placed into a centrifuge tube. The tubes were marked and stored in a refrigerator at -80 °C.
# The concentrations of the compounds of the present disclosure and control compounds in plasma and lung tissue were determined using LC-MS/MS. Table 2. Pharmacokinetic parameters of compound YF027 of the present disclosure and control compound A
smiles,measurement,setting,value
"Cl.[2H]C1([2H])CCCC([2H])([2H])N1C([2H])([2H])c1c(O)cc(C(C)(C)C)c2oc3c4ccc(O)cc4oc(=O)c3c12 [YF027, 10-(tert-Butyl)-3,8-dihydroxy-7-((piperidin-1-yl-2,2,6,6-d4)methyl-d2)-6H-benzofuran[3,2-c]chromen-6-one hydrochloride]",toxic response after repeated administration,"[1]; 100 mg/kg for 28 consecutive days, mice",did not produce a significant toxic response
same,mortality during the administration period,"[1]; 100 mg/kg intragastric, once daily, 6 days a week, 4 weeks, Balb/c mice",no mice died
same,toxicity compared with the non-deuterated compound A,"[1]; same dosing conditions, 100 mg/kg, 28 days, mice",no increased toxicity was observed
same,AUC0-∞,[2],380.76 ng·h/mL
same,CL,[2],262.63 L/h/kg
same,Cmax,[2],100.26 ng/mL
same,Lung tissue distribution Cmax,[2],1406.73 ng/g
same,Tmax,[2],0.5 h
same,t1/2,[2],1.83 h
same,AUC0-t,[2]; 24 h,367.05 ng·h/mL
